Measured values as given in ChEMBL document CHEMBL5550184, “Structure-activity relationships of middle-size cyclic peptides, KRAS inhibitors derived from an mRNA display” (Bioorg Med Chem, 2024).
Positions of bridges follow the written chain, without caps; N, C: chain ends. Non-standard residues stand in square brackets, D forms with d. Residues, ends and D or L forms follow the SMILES beside them. *: point of attachment. hPhe(3-Cl-4-CF3) = N[C@@H](CCc1ccc(C(F)(F)F)c(Cl)c1)C(=O)O; NMeCha = CN[C@@H](CC1CCCCC1)C(=O)O; NEtLeu = CCN[C@@H](CC(C)C)C(=O)O; NMeChg = CN[C@H](C(=O)O)C1CCCCC1; NMeD = CN[C@@H](CC(=O)O)C(=O)O; NMeL = CN[C@@H](CC(C)C)C(=O)O; NMehSer = CN[C@@H](CCO)C(=O)O; NMeNva = CCC[C@H](NC)C(=O)O; Piperidide = C1CCN(*)CC1; Ac5c = NC1(C(=O)O)CCCC1; Sar = CNCC(=O)O

Experiments:
[1] = Inhibition of biotin-tagged KRAS G12D mutant (unknown origin) to recombinant His-tagged SOS1 (unknown origin) protein-protein interaction incubated for 120 mins by AlphaLISA method; set-up: species or system Homo sapiens
GTPase KRas = GTPase KRas (Homo sapiens, UniProt P01116, G12D); assay: Binding affinity to biotinylated KRAS G12D mutant (unknown origin) incubated for 120 mins by SPR analysis
GTPase KRas, sequence (P01116 whole entry G12D): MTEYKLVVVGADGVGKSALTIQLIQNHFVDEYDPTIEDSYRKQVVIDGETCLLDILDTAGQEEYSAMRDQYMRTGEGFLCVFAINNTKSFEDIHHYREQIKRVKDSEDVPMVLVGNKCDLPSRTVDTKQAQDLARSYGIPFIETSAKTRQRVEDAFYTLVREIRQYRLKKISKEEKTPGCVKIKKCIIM

ASPC1 = assay: Cytotoxicity against human AsPC1 cells assessed as reduction in cell viability incubated for 7 days by CellTiterGlo Luminescent Cell Viability Assay; assay type: functional, cell-based; settings: ASPC1, 168 h
[2] = Apparent permeability in human Caco-2 cells incubated for 180 mins by LC-MS/MS method; assay type: ADME, cell-based
[3] = test system: GTPase KRas (Homo sapiens), P01116 [G12D]; assay: Binding affinity to biotinylated KRAS G12D mutant (unknown origin) assessed as Kon incubated for 120 mins by SPR analysis
GTPase KRas (Homo sapiens), P01116 [G12D], sequence (P01116 whole entry G12D, looked up): as the sequence (P01116 whole entry G12D) above

[4] = test system: GTPase KRas (Homo sapiens), P01116 [G12D]; assay: Binding affinity to biotinylated KRAS G12D mutant (unknown origin) assessed as Koff incubated for 120 mins by SPR analysis

Compound | IC50 [1] [nM] | Kd (GTPase KRas) [nM] | IC50 (ASPC1) [nM] | Papp at 3 h [2] [×10⁻⁶ cm/s] | K [3] | K [4]
CC[C@H](C)[C@@H]1NC(=O)[C@H](CC(C)C)N(CC)C(=O)C[C@@H](C(=O)N2CCCCC2)N(C)C(=O)[C@H](C2CCCCC2)N(C)C(=O)C2(CCCC2)NC(=O)[C@@H]2CCCN2C(=O)[C@H](CCc2ccc(C(F)(F)F)c(Cl)c2)NC(=O)CN(C)C(=O)[C@H](CC2CCCCC2)N(C)C(=O)CN(C)C(=O)CN(C)C1=O ([NEtLeu]I[Sar][Sar][NMeCha][Sar][hPhe(3-Cl-4-CF3)]P[Ac5c][NMeChg][NMeD]-Piperidide; lactam N-11) | < 2 | 1.1 | 73 | 0.29 | 2.1 10^5/Ms | 2.3 10^-4/s
CC[C@H](C)[C@@H]1NC(=O)[C@H](CCOC)N(C)C(=O)C[C@@H](C(=O)N2CCCCC2)N(C)C(=O)[C@H](C2CCCCC2)N(C)C(=O)C2(CCCC2)NC(=O)[C@@H]2CCCN2C(=O)[C@H](CCc2ccc(C(F)(F)F)c(Cl)c2)NC(=O)CN(C)C(=O)[C@H](CC2CCCCC2)N(C)C(=O)CN(C)C(=O)CN(C)C1=O ([NMehSer](Me)I[Sar][Sar][NMeCha][Sar][hPhe(3-Cl-4-CF3)]P[Ac5c][NMeChg][NMeD]-Piperidide; lactam N-11) | < 2 | 0.26 | 74 | 0.37 | 1.1 10^6/Ms | 2.8 10^-4/s
CC[C@H](C)[C@@H]1NC(=O)[C@H](CC(C)C)N(C)C(=O)C[C@@H](C(=O)N2CCCCC2)N(C)C(=O)[C@H](C2CCCCC2)N(C)C(=O)C2(CCCC2)NC(=O)[C@@H]2CCCN2C(=O)[C@H](CCc2ccc(C(F)(F)F)c(Cl)c2)NC(=O)CN(C)C(=O)[C@H](CC2CCCCC2)N(C)C(=O)CN(C)C(=O)CN(C)C1=O ([NMeL]I[Sar][Sar][NMeCha][Sar][hPhe(3-Cl-4-CF3)]P[Ac5c][NMeChg][NMeD]-Piperidide; lactam N-11) | < 2 | 0.32 | 40 | 0.71 | 7.8 10^5/Ms | 2.5 10^-4/s
CCC[C@H]1C(=O)N[C@@H]([C@@H](C)CC)C(=O)N(C)CC(=O)N(C)CC(=O)N(C)[C@@H](CC2CCCCC2)C(=O)N(C)CC(=O)N[C@@H](CCc2ccc(C(F)(F)F)c(Cl)c2)C(=O)N2CCC[C@H]2C(=O)NC2(CCCC2)C(=O)N(C)[C@@H](C2CCCCC2)C(=O)N(C)[C@H](C(=O)N2CCCCC2)CC(=O)N1C ([NMeNva]I[Sar][Sar][NMeCha][Sar][hPhe(3-Cl-4-CF3)]P[Ac5c][NMeChg][NMeD]-Piperidide; lactam N-11) | < 2 | 0.75 | 49 | 0.85 | 3.1 10^5/Ms | 2.3 10^-4/s
